Patent US9227971B2, “Pyrazolo[1,5-a]pyrimidine compounds as mTOR inhibitors” (Merck Sharp & Dohme Corp., priority 2010, dated 2016)
Read-outs that look alike come from different tables or passages of the source.

What was measured:
[1] = tested on: phosphorylated AKT Ser473 (pAKT S473), mTORC2 activity, PC3 cells; assay: mTOR target engagement assay, immunofluorescent cell-based, pAKT S473 readout (mTORC2 activity); settings: Homo sapiens
How it was run: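 After blocking, cells were stained overnight at 4 °C with anti-pAKT S473 antibody, then a fluorescent secondary; inhibition was read as reduced fluorescence intensity.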

[2] = tested on: phosphorylated 4E-BP1 Thr37/46 (p4E-BP1 Thr37/46), mTORC1 activity, PC3 cells; assay: mTOR target engagement assay, immunofluorescent cell-based, p4E-BP1 Thr37/46 readout (mTORC1 activity); settings: Homo sapiens, read-out: p4E-BP1 Thr37/46 IC50
How it was run: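 PTEN-mutant PC3 prostate cells were treated with serially diluted compound in 5% FBS F12 medium (0.25% DMSO) for ninety minutes at 37° C, glyoxal-fixed, then immunostained overnight at 4° C for p4E-BP1 Thr37/46 with an Alexa Fluor 488 secondary. IC50 came from four-parameter fits of fluorescence, DMSO-only wells defining 100%.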

[3] = PC-3, PC3 cells, compound treatment ninety minutes at 37° C.

Compound | IC50 [1, 3] [nM] | IC50 [2, 3] [nM] | IC50 ([1]; PC-3, Table 3-1, PC3 cells) [nM] | IC50 ([2]; PC-3, Table 3-1, PC3 cells) [nM]
COc1ccc(-c2ccc(-c3cnn4c(N)cc([C@@H]5C[C@H]6CC[C@@H](C5)N6C(=O)c5nnc[nH]5)nc34)cn2)cc1CO [Compound 2.6, ((1R,3s,5S)-3-(7-amino-3-(6-(3-(hydroxymethyl)-4-methoxyphenyl)pyridin-3-yl)pyrazolo[1,5-a]pyrimidin-5-yl)-8-azabicyclo[3.2.1]octan-8-yl)(4H-1,2,4-triazol-3-yl)methanone] | 100 to 1000 | 100 to 1000 |  | 
COc1ccc(-c2ccc(-c3cnn4c(N)cc([C@@H]5C[C@H]6CC[C@@H](C5)N6C(=O)CO)nc34)cn2)cc1CO [Compound 2.7, 1-((1R,3s,5S)-3-(7-amino-3-(6-(3-(hydroxymethyl)-4-methoxyphenyl)pyridin-3-yl)pyrazolo[1,5-a]pyrimidin-5-yl)-8-azabicyclo[3.2.1]octan-8-yl)-2-hydroxyethanone] | 100 to 1000 | 100 to 1000 |  | 
Nc1cc([C@@H]2C[C@H]3CC[C@@H](C2)N3C(=O)CO)nc2c(-c3ccc(-c4ccccc4)nc3)cnn12 [Compound 2.8, 1-((1R,3s,5S)-3-(7-amino-3-(6-phenylpyridin-3-yl)pyrazolo[1,5-a]pyrimidin-5-yl)-8-azabicyclo[3.2.1]octan-8-yl)-2-hydroxyethanone] | 100 to 1000 | 1000 to 10000 |  | 
Cn1cnc(-c2ccc(-c3cnn4c(N)cc([C@@H]5C[C@H]6CC[C@@H](C5)N6C(=O)c5nnc[nH]5)nc34)cn2)n1 [Compound 2.10, ((1R,3s,5S)-3-(7-amino-3-(6-(1-methyl-1H-1,2,4-triazol-3-yl)pyridin-3-yl)pyrazolo[1,5-a]pyrimidin-5-yl)-8-azabicyclo[3.2.1]octan-8-yl)(4H-1,2,4-triazol-3-yl)methanone] | > 10000 | > 10000 |  | 
Nc1cc([C@@H]2C[C@H]3CC[C@@H](C2)N3C(=O)c2nnc[nH]2)nc2c(-c3ccc4[nH]ncc4c3)cnn12 [Compound 2.12, ((1R,3s,5S)-3-(7-amino-3-(1H-indazol-5-yl)pyrazolo[1,5-a]pyrimidin-5-yl)-8-azabicyclo[3.2.1]octan-8-yl)(1H-1,2,4-triazol-5-yl)methanone] | > 10000 | > 10000 |  | 
Nc1cc([C@@H]2C[C@H]3CC[C@@H](C2)N3C(=O)c2nnc[nH]2)nc2c(-c3cnc4[nH]ccc4c3)cnn12 [Compound 2.13, ((1R,3s,5S)-3-(7-amino-3-(1H-pyrrolo[2,3-b]pyridin-5-yl)pyrazolo[1,5-a]pyrimidin-5-yl)-8-azabicyclo[3.2.1]octan-8-yl)(1H-1,2,4-triazol-5-yl)methanone] | 1000 to 10000 | 1000 to 10000 |  | 
Nc1cc([C@@H]2C[C@H]3CC[C@@H](C2)N3C(=O)c2nnc[nH]2)nc2c(-c3ccc(-c4ccccc4F)nc3)cnn12 [Compound 2.16, ((1R,3s,5S)-3-(7-amino-3-(6-(2-fluorophenyl)pyridin-3-yl)pyrazolo[1,5-a]pyrimidin-5-yl)-8-azabicyclo[3.2.1]octan-8-yl)(4H-1,2,4-triazol-3-yl)methanone] | 100 to 1000 | 100 to 1000 |  | 
Nc1cc([C@@H]2C[C@H]3CC[C@@H](C2)N3C(=O)c2nnc[nH]2)nc2c(-c3ccc(-c4ccc(C(F)(F)F)cc4F)nc3)cnn12 [Compound 2.17, ((1R,3s,5S)-3-(7-amino-3-(6-(2-fluoro-4-(trifluoromethyl)phenyl)pyridin-3-yl)pyrazolo[1,5-a]pyrimidin-5-yl)-8-azabicyclo[3.2.1]octan-8-yl)(4H-1,2,4-triazol-3-yl)methanone] | 1000 to 10000 | 1000 to 10000 |  | 
Nc1cc([C@@H]2C[C@H]3CC[C@@H](C2)N3C(=O)[C@H]2CCCN2)nc2c(-c3ccc(-c4ccccc4)nc3)cnn12 [Compound 2.19, ((1R,3S,5S)-3-(7-amino-3-(6-phenylpyridin-3-yl)pyrazolo[1,5-a]pyrimidin-5-yl)-8-azabicyclo[3.2.1]octan-8-yl)((R)-pyrrolidin-2-yl)methanone] | 100 to 1000 | 1000 to 10000 |  | 
Nc1cc([C@@H]2C[C@H]3CC[C@@H](C2)N3C(=O)[C@@H]2CCCN2)nc2c(-c3ccc(-c4ccccc4)nc3)cnn12 [Compound 2.20] | 1000 to 10000 | 1000 to 10000 |  | 
Nc1cc([C@@H]2C[C@H]3CC[C@@H](C2)N3)nc2c(-c3ccc(-c4ccccc4)nc3)cnn12 [Compound 2.23, 5-((1R,3s,5S)-8-azabicyclo[3.2.1]octan-3-yl)-3-(6-phenylpyridin-3-yl)pyrazolo[1,5-a]pyrimidin-7-amine] | 1000 to 10000 | 1000 to 10000 |  | 
CS(=O)(=O)c1c([C@@H]2C[C@H]3CC[C@@H](C2)N3C(=O)CO)nc2c(-c3ccc(-c4ccccc4)nc3)cnn2c1N [Compound 3.1, 1-((1R,3s,5S)-3-(7-amino-6-(methylsulfonyl)-3-(6-phenylpyridin-3-yl)pyrazolo[1,5-a]pyrimidin-5-yl)-8-azabicyclo[3.2.1]octan-8-yl)-2-hydroxyethanone] |  |  | 1 to 100 | 100 to 1000
CS(=O)(=O)c1c([C@@H]2C[C@H]3CC[C@@H](C2)N3C(=O)c2nc[nH]n2)nc2c(-c3ccc(-c4ccccc4)nc3)cnn2c1N [Compound 3.2, ((1R,3s,5S)-3-(7-amino-6-(methylsulfonyl)-3-(6-phenylpyridin-3-yl)pyrazolo[1,5-a]pyrimidin-5-yl)-8-azabicyclo[3.2.1]octan-8-yl)(1H-1,2,4-triazol-3-yl)methanone] |  |  | 1 to 100 | 1 to 100
CS(=O)(=O)c1c([C@@H]2C[C@H]3CC[C@@H](C2)N3C(=O)c2cnn[nH]2)nc2c(-c3ccc(-c4ccccc4)nc3)cnn2c1N [Compound 3.3, ((1R,3s,5S)-3-(7-amino-6-(methylsulfonyl)-3-(6-phenylpyridin-3-yl)pyrazolo[1,5-a]pyrimidin-5-yl)-8-azabicyclo[3.2.1]octan-8-yl)(1H-1,2,3,-triazol-5-yl)methanone] |  |  | 1 to 100 | 100 to 1000
Cc1n[nH]c(C(=O)N2[C@@H]3CC[C@H]2C[C@H](c2nc4c(-c5ccc(-c6ccccc6)nc5)cnn4c(N)c2S(C)(=O)=O)C3)n1 [Compound 3.4, ((1R,3s,5S)-3-(7-amino-6-(methylsulfonyl)-3-(6-phenylpyridin-3-yl)pyrazolo[1,5-a]pyrimidin-5-yl)-8-azabicyclo[3.2.1]octan-8-yl)(3-methyl-1H-1,2,4-triazol-5-yl)methanone] |  |  | 1 to 100 | 1 to 100
CS(=O)(=O)c1c([C@@H]2C[C@H]3CC[C@@H](C2)N3C(=O)c2nnn[nH]2)nc2c(-c3ccc(-c4ccccc4)nc3)cnn2c1N [Compound 3.5, ((1R,3s,5S)-3-(7-amino-6-(methylsulfonyl)-3-(6-phenylpyridin-3-yl)pyrazolo[1,5-a]pyrimidin-5-yl)-8-azabicyclo[3.2.1]octan-8-yl)(1H-tetrazol-5-yl)methanone] |  |  | 1000 to 10000 | > 10000
CS(=O)(=O)c1c(C2CC3CCC(C2)N3C(=O)c2nnc[nH]2)nc2c(-c3ccc(-c4ccccc4)[n+]([O-])c3)cnn2c1N [Compound 3.6, 5-(5-((1R,3s,5S)-8-(1H-1,2,4-triazole-3-carbonyl)-8-azabicyclo[3.2.1]octan-3-yl)-7-amino-6-(methylsulfonyl)pyrazolo[1,5-a]pyrimidin-3-yl)-2-phenylpyridine 1-oxide] |  |  | 100 to 1000 | 100 to 1000
CS(=O)(=O)c1c([C@@H]2C[C@H]3CC[C@@H](C2)N3C(=O)[C@H](O)CO)nc2c(-c3ccc(-c4ccccc4)nc3)cnn2c1N [Compound 3.7, (R)-1-((1R,3S,5S)-3-(7-amino-6-(methylsulfonyl)-3-(6-phenylpyridin-3-yl)pyrazolo[1,5-a]pyrimidin-5-yl)-8-azabicyclo[3.2.1]octan-8-yl)-2,3-dihydroxypropan-1-one] |  |  | 100 to 1000 | 1000 to 10000
CCNC(=O)N1[C@@H]2CC[C@H]1C[C@H](c1nc3c(-c4ccc(-c5ccccc5)nc4)cnn3c(N)c1S(C)(=O)=O)C2 [Compound 3.8, (1R,3s,5S)-3-(7-amino-6-(methylsulfonyl)-3-(6-phenylpyridin-3-yl)pyrazolo[1,5-a]pyrimidin-5-yl)-N-ethyl-8-azabicyclo[3.2.1]octane-8-carboxamide] |  |  | 100 to 1000 | 100 to 1000
CS(=O)(=O)c1c([C@@H]2C[C@H]3CC[C@@H](C2)N3C(N)=O)nc2c(-c3ccc(-c4ccccc4)nc3)cnn2c1N [Compound 3.10, (1R,3s,5S)-3-(7-amino-6-(methylsulfonyl)-3-(6-phenylpyridin-3-yl)pyrazolo[1,5-a]pyrimidin-5-yl)-8-azabicyclo[3.2.1]octane-8-carboxamide] |  |  | 1 to 100 | 1 to 100
CS(=O)(=O)c1c([C@@H]2C[C@H]3CC[C@@H](C2)N3C(=O)NC2CC2)nc2c(-c3ccc(-c4ccccc4)nc3)cnn2c1N [Compound 3.11, (1R,3s,5S)-3-(7-amino-6-(methylsulfonyl)-3-(6-phenylpyridin-3-yl)pyrazolo[1,5-a]pyrimidin-5-yl)-N-cyclopropyl-8-azabicyclo[3.2.1]octane-8-carboxamide] |  |  | 100 to 1000 | 1000 to 10000
CS(=O)(=O)c1c([C@@H]2C[C@H]3CC[C@@H](C2)N3C(=O)C2(O)CC2)nc2c(-c3ccc(-c4ccccc4)nc3)cnn2c1N [Compound 3.12, ((1R,3s,5S)-3-(7-amino-6-(methylsulfonyl)-3-(6-phenylpyridin-3-yl)pyrazolo[1,5-a]pyrimidin-5-yl)-8-azabicyclo[3.2.1]octan-8-yl)(1-hydroxycyclopropyl)methanone] |  |  | 100 to 1000 | 1000 to 10000
CS(=O)(=O)c1c([C@@H]2C[C@H]3CC[C@@H](C2)N3C(=O)c2ncccc2O)nc2c(-c3ccc(-c4ccccc4)nc3)cnn2c1N [Compound 3.13] |  |  | 100 to 1000 | 100 to 1000
